# Data taken from paper PMC7751951 (Cancer chemotherapy and pharmacology, 2015).
# Legend:
# [1] = tested on: recurrent or refractory solid tumors; assay: Tumor response; type: in vivo, human (children and adolescents)
# [2] = early clinical trials in adults; cited from earlier work
# [3] = Toxicity, DLT and MTD in phase I trial
# [4] = single-agent docetaxel 150–235 mg/m^2, children and adolescents with refractory solid tumors; cited from earlier work
# [5] = tested on: ATPase activity of the Pgp drug efflux pump; settings: introduction statement, no reference given; cited from earlier work
# Pgp = settings: adults, 2 mg/kg IV over 30 min; rhodamine uptake in CD56+ lymphocytes; cited from earlier work
# [6] = adults, 2 mg/kg IV over 30 min; cited from earlier work
# [7] = human, in vivo, 21 days
# [8] = Plasma pharmacokinetics of tariquidar alone; type: in vivo, human (children and adolescents); settings: human, intravenous, tariquidar in combination with chemotherapy, at all dose levels
# [9] = tested on: Breast Cancer Resistance Protein (BCRP/ABCG2); settings: cited from earlier work
# [10] = cited from earlier work
structure (smiles),measurement,setting,value
COc1cccc2c1C(=O)c1c(O)c3c(c(O)c1C2=O)C[C@@](O)(C(=O)CO)C[C@@H]3O[C@H]1C[C@H](N)[C@H](O)[C@H](C)O1 [Doxorubicin],Response,"[1]; person, metastatic adrenocortical carcinoma, two cycles of tariquidar in combination with doxorubicin",partial response
same,Best response [cycle],"[1]; subject 014, rhabdomyosarcoma, with tariquidar 2 mg/kg",partial response
same,increase of systemic exposure in combination with tariquidar,[2],26%
CC(=O)O[C@@]12CO[C@@H]1C[C@H](O)[C@@]1(C)C(=O)[C@H](O)C3=C(C)[C@@H](OC(=O)[C@H](O)[C@@H](NC(=O)OC(C)(C)C)c4ccccc4)C[C@@](O)([C@@H](OC(=O)c4ccccc4)[C@H]21)C3(C)C [Docetaxel],"participants with grade 3 thrombocytopenia (platelet count ≥10,000, <50,000/μL)","[3]; docetaxel in combination with tariquidar, three of nine participants",33%
same,"platelet counts less than 50,000/μL",[4],not observed
CCC1=C[C@@H]2CN(C1)Cc1c([nH]c3ccccc13)[C@@](C(=O)OC)(c1cc3c(cc1OC)N(C)[C@H]1[C@@](O)(C(=O)OC)[C@H](OC(C)=O)[C@]4(CC)C=CCN5CC[C@]31[C@@H]54)C2 [Vinorelbine],Best response [cycle],"[1]; subject 009, pancreatoblastoma, with tariquidar 1.5 mg/kg",complete radiographic response
same,change in pharmacokinetics in combination with tariquidar,[2],No change
COc1cc2c(cc1OC)CN(CCc1ccc(NC(=O)c3cc(OC)c(OC)cc3NC(=O)c3cnc4ccccc4c3)cc1)CC2 [Tariquidar],maximum tolerated dose of tariquidar,[3]; escalation up to 2 mg/kg,No maximum tolerated dose was achieved
same,effect on ATPase activity of the Pgp drug efflux pump,[5],inhibits
same,time for which maximum inhibition of Pgp was maintained,Pgp,24 h
same,area under the concentration time curve (AUC0–48),[6],12.6 µM·h
same,clearance,[6],160 mL/min/m^2
same,half-life,[6],26 h
same,"tariquidar-related dysgeusia (n = 3), grade",[7],1
same,"tariquidar-related hypotension (n = 2), grade",[7],2
same,"tariquidar-related nausea (n = 1), grade",[7],1
same,"tariquidar-related peripheral edema (n = 1), grade",[7],2
same,"tariquidar-related pruritus (n = 1), grade",[7],1
same,Cmax,[8],> 2000 nM
same,inhibition of Breast Cancer Resistance Protein (BCRP/ABCG2),[9],inhibit
same,tolerability in adults,[10],well tolerated
CC(=O)O[C@H]1C(=O)[C@@]2(C)[C@H]([C@H](OC(=O)c3ccccc3)[C@]3(O)C[C@H](OC(=O)[C@H](O)[C@@H](NC(=O)c4ccccc4)c4ccccc4)C(C)=C1C3(C)C)[C@]1(OC(C)=O)CO[C@@H]1C[C@@H]2O [paclitaxel],increase of systemic exposure in combination with tariquidar,[2],44%
